# Laboratory results reported in PMC11928863 (Computational and Structural Biotechnology Journal, 2025).
# Target: T1, CD2068 (Clostridioides difficile, UniProt Q188D7)
# T1 sequence (Q188D7 1-541): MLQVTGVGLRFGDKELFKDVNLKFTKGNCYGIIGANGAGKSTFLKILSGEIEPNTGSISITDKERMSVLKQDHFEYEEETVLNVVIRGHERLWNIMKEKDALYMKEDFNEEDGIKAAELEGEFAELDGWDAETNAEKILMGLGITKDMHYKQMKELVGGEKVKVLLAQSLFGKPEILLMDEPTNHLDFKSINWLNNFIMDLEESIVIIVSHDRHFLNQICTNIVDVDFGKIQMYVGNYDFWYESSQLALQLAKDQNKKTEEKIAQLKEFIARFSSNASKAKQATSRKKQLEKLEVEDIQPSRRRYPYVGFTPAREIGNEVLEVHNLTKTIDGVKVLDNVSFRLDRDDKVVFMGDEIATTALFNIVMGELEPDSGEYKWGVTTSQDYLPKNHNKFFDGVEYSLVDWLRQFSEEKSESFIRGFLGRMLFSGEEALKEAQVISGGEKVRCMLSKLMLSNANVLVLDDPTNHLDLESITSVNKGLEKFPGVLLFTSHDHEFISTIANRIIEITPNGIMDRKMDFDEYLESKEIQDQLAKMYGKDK
# Assay: malachite green ATPase assay, purified CD2068 with […] ATP
# Type: biochemical
smiles,measurement,value
Nc1ncnc2c1ncn2[C@@H]1O[C@H](COP(=O)(O)OP(=O)(O)OP(=O)(O)O)[C@@H](O)[C@H]1O [ATP],"malachite green ATPase assay, purified CD2068 with 1 mM ATP",52.52 nmol/min/mg
